From the kinase profiling compilation of Christmann-Franck et al. (2016)

How the values were obtained:
Assay in all cases: KINOMEscan competition binding
Settings in all cases: compound 0.1 µM
PLK2 (human) = PLK2 (human) (UniProt Q9NYY3)
MAP4K4 (human) = MAP4K4 (human) (UniProt O95819)
MARK1 (human) = MARK1 (human) (UniProt Q9P0L2)
PRKG1 (human) = PRKG1 (human) (UniProt Q13976)
PAK3 (human) = PAK3 (human) (UniProt O75914)
LIMK1 (human) = LIMK1 (human) (UniProt P53667)
NUAK1 (human) = NUAK1 (human) (UniProt O60285)
MAPK3 (human) = MAPK3 (human) (UniProt P27361)
SIK1 (human) = SIK1 (human) (UniProt P57059)
MTOR (human) = MTOR (human) (UniProt P42345)
PIK3CA (human) = PIK3CA (human) (UniProt P42336)
FGFR1 (human) = FGFR1 (human) (UniProt P11362)
MAP2K4 (human) = MAP2K4 (human) (UniProt P45985)
SRC (human) = SRC (human) (UniProt P12931)
CDC42BPB (human) = CDC42BPB (human) (UniProt Q9Y5S2)
PDGFRA (human) = PDGFRA (human) (UniProt P16234)
RPS6KA1 KD2 (human) = RPS6KA1 KD2 (human) (UniProt Q15418)
STK3 (human) = STK3 (human) (UniProt Q13188)
MAP3K13 (human) = MAP3K13 (human) (UniProt O43283)
SRPK1 (human) = SRPK1 (human) (UniProt Q96SB4)
MAPK9 (human) = MAPK9 (human) (UniProt P45984)
PLK3 (human) = PLK3 (human) (UniProt Q9H4B4)
PRKACB (human) = PRKACB (human) (UniProt P22694)
MAPK10 (human) = MAPK10 (human) (UniProt P53779)
[1] = test system: EGFR (human), P00533 [746-750 del]
CDC2L2 (human) = CDC2L2 (human) (UniProt Q9UQ88)
CSNK1E (human) = CSNK1E (human) (UniProt P49674)
TESK1 (human) = TESK1 (human) (UniProt Q15569)
[2] = test system: ALK (human), Q9UM73 [C1156Y]
CAMK4 (human) = CAMK4 (human) (UniProt Q16566)
PKN2 (human) = PKN2 (human) (UniProt Q16513)
HIPK3 (human) = HIPK3 (human) (UniProt Q9H422)
FLT1 (human) = FLT1 (human) (UniProt P17948)
MARK4 (human) = MARK4 (human) (UniProt Q96L34)
ACVR2A (human) = ACVR2A (human) (UniProt P27037)
MERTK (human) = MERTK (human) (UniProt Q12866)
PIM1 (human) = PIM1 (human) (UniProt P11309)
MAP2K6 (human) = MAP2K6 (human) (UniProt P52564)
TIE1 (human) = TIE1 (human) (UniProt P35590)
SGK110 (human) = SGK110 (human) (UniProt P0C264)

Sequence of PLK3 (human) (Q9H4B4 whole entry, looked up): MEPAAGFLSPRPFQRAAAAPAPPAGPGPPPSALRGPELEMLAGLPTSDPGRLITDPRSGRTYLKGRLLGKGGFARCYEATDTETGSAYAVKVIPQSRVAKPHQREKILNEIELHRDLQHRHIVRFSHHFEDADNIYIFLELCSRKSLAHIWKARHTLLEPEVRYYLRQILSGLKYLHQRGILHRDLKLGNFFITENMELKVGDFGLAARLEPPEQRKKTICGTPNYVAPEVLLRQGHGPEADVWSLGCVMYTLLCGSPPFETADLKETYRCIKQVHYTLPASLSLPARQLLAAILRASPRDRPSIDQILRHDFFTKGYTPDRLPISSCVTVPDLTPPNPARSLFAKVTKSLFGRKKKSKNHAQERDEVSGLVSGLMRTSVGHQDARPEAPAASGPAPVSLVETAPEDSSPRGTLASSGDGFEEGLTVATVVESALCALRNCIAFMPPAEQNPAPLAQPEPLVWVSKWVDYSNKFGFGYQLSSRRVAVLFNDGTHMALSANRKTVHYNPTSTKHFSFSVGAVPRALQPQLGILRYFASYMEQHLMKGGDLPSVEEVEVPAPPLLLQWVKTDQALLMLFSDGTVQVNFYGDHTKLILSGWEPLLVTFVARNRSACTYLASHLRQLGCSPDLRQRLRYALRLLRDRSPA
Sequence of MAP2K6 (human) (P52564 whole entry, looked up): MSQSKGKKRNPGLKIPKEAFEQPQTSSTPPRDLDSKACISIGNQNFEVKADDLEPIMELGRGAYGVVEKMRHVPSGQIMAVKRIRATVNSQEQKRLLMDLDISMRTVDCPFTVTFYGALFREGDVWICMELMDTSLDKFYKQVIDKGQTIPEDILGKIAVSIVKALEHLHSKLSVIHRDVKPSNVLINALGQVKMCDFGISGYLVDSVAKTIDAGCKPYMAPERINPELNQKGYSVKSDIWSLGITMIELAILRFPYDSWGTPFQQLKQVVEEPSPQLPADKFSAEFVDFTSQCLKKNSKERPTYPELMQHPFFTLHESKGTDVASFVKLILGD
Sequence of MAP3K13 (human) (O43283 whole entry, looked up): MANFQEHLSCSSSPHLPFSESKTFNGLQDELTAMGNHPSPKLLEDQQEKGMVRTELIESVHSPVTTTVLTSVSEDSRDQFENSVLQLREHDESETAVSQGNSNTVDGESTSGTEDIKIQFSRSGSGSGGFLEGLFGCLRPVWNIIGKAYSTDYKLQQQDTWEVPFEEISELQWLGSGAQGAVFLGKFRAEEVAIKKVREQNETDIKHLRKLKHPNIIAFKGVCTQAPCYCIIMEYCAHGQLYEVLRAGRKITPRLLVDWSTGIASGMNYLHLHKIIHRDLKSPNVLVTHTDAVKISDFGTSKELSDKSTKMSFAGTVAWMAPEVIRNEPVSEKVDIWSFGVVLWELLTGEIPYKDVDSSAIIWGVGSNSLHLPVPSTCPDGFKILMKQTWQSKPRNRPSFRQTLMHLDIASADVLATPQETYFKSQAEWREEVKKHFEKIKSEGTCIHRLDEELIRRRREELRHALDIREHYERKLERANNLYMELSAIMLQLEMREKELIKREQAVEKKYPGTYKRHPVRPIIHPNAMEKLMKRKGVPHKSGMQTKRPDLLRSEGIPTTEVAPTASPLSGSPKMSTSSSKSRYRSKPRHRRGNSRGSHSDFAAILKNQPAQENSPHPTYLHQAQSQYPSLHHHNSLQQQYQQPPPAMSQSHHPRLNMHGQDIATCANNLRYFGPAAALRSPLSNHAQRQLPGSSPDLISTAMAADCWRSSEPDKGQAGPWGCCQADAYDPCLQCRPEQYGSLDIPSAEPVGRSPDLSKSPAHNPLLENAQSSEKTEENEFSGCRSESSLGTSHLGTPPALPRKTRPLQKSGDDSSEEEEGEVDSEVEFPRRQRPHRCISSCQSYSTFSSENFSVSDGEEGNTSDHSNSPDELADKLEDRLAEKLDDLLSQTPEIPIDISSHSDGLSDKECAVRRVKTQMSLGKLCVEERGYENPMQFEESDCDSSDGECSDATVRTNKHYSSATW
Sequence of MAPK10 (human) (P53779 whole entry, looked up): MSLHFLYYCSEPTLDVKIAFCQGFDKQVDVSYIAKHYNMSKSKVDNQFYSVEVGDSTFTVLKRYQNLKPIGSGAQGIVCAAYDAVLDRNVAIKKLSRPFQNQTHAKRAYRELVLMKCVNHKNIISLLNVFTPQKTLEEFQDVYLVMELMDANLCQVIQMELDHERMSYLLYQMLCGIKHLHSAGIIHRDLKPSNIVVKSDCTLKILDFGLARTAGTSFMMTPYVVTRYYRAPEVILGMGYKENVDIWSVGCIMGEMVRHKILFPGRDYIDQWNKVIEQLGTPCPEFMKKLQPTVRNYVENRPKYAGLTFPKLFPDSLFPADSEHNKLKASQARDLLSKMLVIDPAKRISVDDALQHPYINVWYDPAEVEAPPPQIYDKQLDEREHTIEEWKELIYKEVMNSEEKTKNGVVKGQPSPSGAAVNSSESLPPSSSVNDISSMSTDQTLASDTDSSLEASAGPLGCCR
Sequence of FGFR1 (human) (P11362 whole entry, looked up): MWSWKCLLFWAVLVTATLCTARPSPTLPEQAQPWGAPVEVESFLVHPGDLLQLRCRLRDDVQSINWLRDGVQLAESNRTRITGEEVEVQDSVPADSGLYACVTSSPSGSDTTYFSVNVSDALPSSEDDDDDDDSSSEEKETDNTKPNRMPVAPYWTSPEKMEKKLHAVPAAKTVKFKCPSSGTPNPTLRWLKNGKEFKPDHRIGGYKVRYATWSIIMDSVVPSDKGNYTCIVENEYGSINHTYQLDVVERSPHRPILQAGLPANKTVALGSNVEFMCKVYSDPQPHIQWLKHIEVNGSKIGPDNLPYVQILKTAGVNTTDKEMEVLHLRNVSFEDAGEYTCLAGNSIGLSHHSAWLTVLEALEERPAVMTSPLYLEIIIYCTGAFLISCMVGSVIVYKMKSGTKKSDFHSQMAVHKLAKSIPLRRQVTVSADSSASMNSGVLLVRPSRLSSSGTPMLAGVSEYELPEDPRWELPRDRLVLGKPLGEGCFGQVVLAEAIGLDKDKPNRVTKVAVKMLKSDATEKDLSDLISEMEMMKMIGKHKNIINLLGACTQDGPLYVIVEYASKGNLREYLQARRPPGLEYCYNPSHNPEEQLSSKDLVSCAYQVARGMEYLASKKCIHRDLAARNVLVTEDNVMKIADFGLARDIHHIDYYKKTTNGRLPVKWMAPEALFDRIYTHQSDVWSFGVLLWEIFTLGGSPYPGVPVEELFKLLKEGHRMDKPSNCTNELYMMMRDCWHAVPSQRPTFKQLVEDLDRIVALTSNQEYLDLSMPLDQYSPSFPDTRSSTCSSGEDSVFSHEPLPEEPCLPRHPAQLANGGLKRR
Sequence of SRPK1 (human) (Q96SB4 whole entry, looked up): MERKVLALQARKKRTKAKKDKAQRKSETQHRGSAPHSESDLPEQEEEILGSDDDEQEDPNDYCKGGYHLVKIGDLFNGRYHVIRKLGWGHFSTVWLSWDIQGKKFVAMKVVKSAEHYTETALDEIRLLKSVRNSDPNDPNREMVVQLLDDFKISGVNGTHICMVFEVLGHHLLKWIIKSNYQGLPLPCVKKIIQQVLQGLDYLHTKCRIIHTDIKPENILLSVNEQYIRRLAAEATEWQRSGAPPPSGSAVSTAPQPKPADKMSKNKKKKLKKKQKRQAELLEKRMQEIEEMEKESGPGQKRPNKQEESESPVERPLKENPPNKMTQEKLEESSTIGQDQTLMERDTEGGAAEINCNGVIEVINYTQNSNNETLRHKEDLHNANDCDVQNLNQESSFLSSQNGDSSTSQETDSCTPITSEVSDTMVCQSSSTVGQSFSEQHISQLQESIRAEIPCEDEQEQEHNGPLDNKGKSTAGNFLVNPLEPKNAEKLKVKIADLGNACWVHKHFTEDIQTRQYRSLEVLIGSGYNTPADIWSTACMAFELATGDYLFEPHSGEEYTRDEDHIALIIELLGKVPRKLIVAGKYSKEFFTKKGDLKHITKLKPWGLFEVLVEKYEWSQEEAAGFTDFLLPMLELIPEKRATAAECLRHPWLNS
Sequence of TIE1 (human) (P35590 whole entry, looked up): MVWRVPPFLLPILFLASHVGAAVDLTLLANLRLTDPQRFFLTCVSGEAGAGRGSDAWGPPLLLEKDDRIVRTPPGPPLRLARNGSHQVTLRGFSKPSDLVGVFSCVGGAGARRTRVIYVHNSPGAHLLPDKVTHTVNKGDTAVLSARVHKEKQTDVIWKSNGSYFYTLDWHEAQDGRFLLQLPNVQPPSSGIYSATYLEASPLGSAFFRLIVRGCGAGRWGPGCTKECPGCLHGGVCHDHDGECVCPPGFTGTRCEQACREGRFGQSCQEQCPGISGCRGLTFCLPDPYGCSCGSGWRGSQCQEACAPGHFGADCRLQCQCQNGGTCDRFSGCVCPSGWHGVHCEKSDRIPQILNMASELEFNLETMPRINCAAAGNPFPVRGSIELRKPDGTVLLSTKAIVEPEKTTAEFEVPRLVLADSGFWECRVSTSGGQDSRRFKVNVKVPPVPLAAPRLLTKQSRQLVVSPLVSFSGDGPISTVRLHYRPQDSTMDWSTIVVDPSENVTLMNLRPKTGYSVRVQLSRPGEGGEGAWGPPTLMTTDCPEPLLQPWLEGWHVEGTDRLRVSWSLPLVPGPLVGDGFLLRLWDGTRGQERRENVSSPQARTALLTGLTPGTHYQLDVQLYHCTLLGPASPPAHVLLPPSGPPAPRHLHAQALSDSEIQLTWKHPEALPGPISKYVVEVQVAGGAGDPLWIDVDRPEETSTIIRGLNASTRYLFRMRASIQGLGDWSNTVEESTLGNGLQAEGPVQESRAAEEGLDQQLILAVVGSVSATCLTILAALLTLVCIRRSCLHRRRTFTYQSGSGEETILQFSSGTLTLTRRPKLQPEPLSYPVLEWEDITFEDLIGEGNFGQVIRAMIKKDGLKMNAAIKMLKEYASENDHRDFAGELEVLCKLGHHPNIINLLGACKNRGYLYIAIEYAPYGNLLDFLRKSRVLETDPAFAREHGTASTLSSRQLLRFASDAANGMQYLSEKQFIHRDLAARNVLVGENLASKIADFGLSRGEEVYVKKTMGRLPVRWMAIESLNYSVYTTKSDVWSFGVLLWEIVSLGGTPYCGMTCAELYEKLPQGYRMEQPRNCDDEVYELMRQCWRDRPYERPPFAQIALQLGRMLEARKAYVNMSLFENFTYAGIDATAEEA

**Q.** For CCc1ccc(C(=O)Nc2cc(CN3CCN(C)CC3)cc(C(F)(F)F)c2)cc1C#Cc1cnc2ccnn2c1, which kinase still bound, per cent of control (PLK2 (human)) is on record?
**A.** 100%

**Q.** And the kinase still bound, per cent of control (MAP4K4 (human))?
**A.** 100%

**Q.** And the kinase still bound, per cent of control (MARK1 (human))?
**A.** 74%

**Q.** What about the kinase still bound, per cent of control (PRKG1 (human)) of the same compound?
**A.** 99%

**Q.** And the kinase still bound, per cent of control (PAK3 (human))?
**A.** 41%

**Q.** And the kinase still bound, per cent of control (LIMK1 (human))?
**A.** 85%

**Q.** What about the kinase still bound, per cent of control (NUAK1 (human)) of the same compound?
**A.** 100%

**Q.** And the kinase still bound, per cent of control (MAPK3 (human))?
**A.** 100%

**Q.** And the kinase still bound, per cent of control (SIK1 (human))?
**A.** 100%

**Q.** And the kinase still bound, per cent of control (MTOR (human))?
**A.** 100%

**Q.** And the kinase still bound, per cent of control (PIK3CA (human))?
**A.** 100%

**Q.** And the kinase still bound, per cent of control (FGFR1 (human))?
**A.** 84%

**Q.** And the kinase still bound, per cent of control (MAP2K4 (human))?
**A.** 100%

**Q.** And the kinase still bound, per cent of control (SRC (human))?
**A.** 76%

**Q.** What about the kinase still bound, per cent of control (CDC42BPB (human)) of the same compound?
**A.** 78%

**Q.** What about the kinase still bound, per cent of control (PDGFRA (human)) of the same compound?
**A.** 79%

**Q.** What about the kinase still bound, per cent of control (RPS6KA1 KD2 (human)) of the same compound?
**A.** 100%

**Q.** And the kinase still bound, per cent of control (STK3 (human))?
**A.** 100%

**Q.** And the kinase still bound, per cent of control (MAP3K13 (human))?
**A.** 71%

**Q.** And the kinase still bound, per cent of control (SRPK1 (human))?
**A.** 100%

**Q.** And the kinase still bound, per cent of control (MAPK9 (human))?
**A.** 100%

**Q.** What about the kinase still bound, per cent of control (PLK3 (human)) of the same compound?
**A.** 100%

**Q.** And the kinase still bound, per cent of control (PRKACB (human))?
**A.** 100%

**Q.** And the kinase still bound, per cent of control (MAPK10 (human))?
**A.** 100%

**Q.** And the kinase still bound, per cent of control [1]?
**A.** 100%

**Q.** And the kinase still bound, per cent of control (CDC2L2 (human))?
**A.** 100%

**Q.** And the kinase still bound, per cent of control (CSNK1E (human))?
**A.** 85%

**Q.** And the kinase still bound, per cent of control (TESK1 (human))?
**A.** 73%

**Q.** What about the kinase still bound, per cent of control [2] of the same compound?
**A.** 97%

**Q.** What about the kinase still bound, per cent of control (CAMK4 (human)) of the same compound?
**A.** 100%

**Q.** And the kinase still bound, per cent of control (PKN2 (human))?
**A.** 74%

**Q.** And the kinase still bound, per cent of control (HIPK3 (human))?
**A.** 100%

**Q.** And the kinase still bound, per cent of control (FLT1 (human))?
**A.** 84%

**Q.** And the kinase still bound, per cent of control (MARK4 (human))?
**A.** 71%

**Q.** And the kinase still bound, per cent of control (ACVR2A (human))?
**A.** 97%

**Q.** And the kinase still bound, per cent of control (MERTK (human))?
**A.** 52%

**Q.** What about the kinase still bound, per cent of control (PIM1 (human)) of the same compound?
**A.** 80%

**Q.** What about the kinase still bound, per cent of control (MAP2K6 (human)) of the same compound?
**A.** 100%

**Q.** And the kinase still bound, per cent of control (TIE1 (human))?
**A.** 51%

**Q.** What about the kinase still bound, per cent of control (SGK110 (human)) of the same compound?
**A.** 100%
